# Source: patent publication US20190092769A1, “[…] AND T[…] ACTING UPON THE […] AND CENTRAL NERVOUS SYSTEMS” (CENTRO DE INVESTIGACION Y […] LOS MEDICAMENTOS (CIDEM), priority 2009, published 2019)
# How the values were obtained:
# [1] = test system: cerebellar granules damaged with glutamate; test: Cytoprotective effect in cerebellar granules exposed to glutamate; type: cell-based
# Description: For neuro-protective in vitro evaluation, we used PC12 cell cultures exposed to damage from glutamate and hydrogen peroxide, as well as cerebellar granules damaged with glutamate.
# Diazepam (DZP), derivative of commercial 1,4-benzodiazepine.
# [2] = test system: mitochondrial permeability transition (MPT); test: Mitochondrial permeability transition in isolated mitochondria (absorbance decrease at 540 nm); type: biochemical; conditions: inducers Ca2+ 50 μM and phosphate (Pi)
# Description: Mitochondrial permeability transition can be estimated by absorbance decrease of a mitochondrial suspension at 540 nm.
# [3] = test system: mitochondrial membrane potential; test: Dissipation of mitochondrial membrane potential (safranine O fluorescence); type: biochemical; conditions: Ca2+ 50 μM and phosphate (Pi) 2 mM
# Protocol: This membrane potential can be fluorimetrically estimated by using safranine O. This marker is captured in the suspension by energized mitochondria (in the presence of substrates of the electronic transportation chain, such as succinate) provoking a fluorescence decrease. When the MPT process takes place, safranine is again released to the environment, thus increasing, fluorescence. […] In a dosage dependent manner, JM-20 inhibits potential loss, being the maximum inhibitory level at 15 μM (orange line).
# Safranine (10 μM) is captured by energized mitochondria (succinate 5 mM rotenone 2.5 μM). In the presence of MPT inducers such as Ca^2+ and Pi, an immediate loss of mitochondrial membrane potential takes place (black line) that is prevented by the classic MPT inhibitor, CsA (red line) and by JM-20 (green, blue and orange lines) in a dosage dependent manner. The excitation/emission wave length used for safranine are 495/586 nm, respectively. A mitoprotective behavior similar to the one reported in the previous Table was found in the other molecules evaluated.
# [4] = molecular target: T1, mitochondrial uniporter calcium excipient (Homo sapiens, UniProt Q8NE86); test: Mitochondrial calcium capture in isolated mitochondria (Calcium Green 5N); type: biochemical
# T1 construct: This experiment is also carried out with isolated mitochondria (0.5 mg/ml); from tissue
# T1 sequence (Q8NE86 51-351): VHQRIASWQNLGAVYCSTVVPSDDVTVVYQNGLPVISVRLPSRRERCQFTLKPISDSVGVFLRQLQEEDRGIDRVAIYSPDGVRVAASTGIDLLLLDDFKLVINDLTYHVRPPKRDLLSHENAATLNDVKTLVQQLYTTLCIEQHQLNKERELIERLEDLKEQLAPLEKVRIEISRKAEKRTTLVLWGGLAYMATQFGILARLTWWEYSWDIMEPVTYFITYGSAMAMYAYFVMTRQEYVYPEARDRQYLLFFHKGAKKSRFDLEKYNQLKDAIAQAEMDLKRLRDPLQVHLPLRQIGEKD
# T1 sequence (Q9H4I9 48-107 partner limits assumed): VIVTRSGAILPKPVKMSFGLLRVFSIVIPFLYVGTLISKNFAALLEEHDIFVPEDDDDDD
# Protocol: This experiment is also carried out with isolated mitochondria (0.5 mg/ml) energized with succinate 5 mM+rotenone 2.5 μM and the presence of Calcium Green 5N fluorescent marker which increases fluorescence in the presence of calcium. […] The excitation/emission wave lengths used for Calcium Green 5N are 506/531 nm, respectively.
# [5] = molecular target: T2, mitochondrial FOF1 ATPase (complex V) (Rattus norvegicus, UniProt P10719+P15999); test: ATP hydrolysis by FOF1 ATPase in submitochondrial particles; type: biochemical, Wistar rats
# T2 construct: These particles are obtained from isolated mitochondria from Wistar rats' liver; from tissue; host or cells: submitochondrial particles from Wistar rat liver mitochondria (sonicated)
# Description: These particles are obtained from isolated mitochondria from Wistar rats' liver, submitted to an ultrasound process to break their membranes. Thus, so-called mitoplasts or submitchondrial particles are formed with inverted portions of the inner membrane that preserve the ATP hydrolytic activity of the FOF1 ATPase in the presence of external ATP.
compound,measurement,setting,value
"4-(2′-Nitrophenyl)-3-Carbonylalcohoxi-2-Methyl-1, 4-Dihydropyrido (2,3-b-5,6-e)-1,4-Benzodiazepine [JM-20]",cytoprotective effect at concentrations lower than that of Nifedipine and Diazepam independently,[1],100 times
same,MIC: concentration at which total inhibition of mitochondrial permeability transition took place,[2],15 µM
same,maximum inhibitory level for loss of mitochondrial membrane potential,[3],15 µM
same,inhibition of calcium mitochondrial uptake,"[4]; 10 μM, isolated mitochondria 0.5 mg/ml, 20 μM Ca2+",significantly inhibits
same,inhibition of the mitochondrial calcium transmitter compared with Nifedipine,[4]; FIG. 25,more powerful in inhibiting the transmitter than other dihydropyridines (Nif)
same,IC50,"[5]; submitochondrial particles from Wistar rats' liver mitochondria, read-out: mean inhibitory concentration (IC50) of ATP hydrolysis",10.2 µM
"CN1C(=O)CN=C(c2ccccc2)c2cc(Cl)ccc21 [Diazepam, reference compound]",inhibition of calcium captation by the organelle,"[4]; 20 μM, isolated mitochondria 0.5 mg/ml, 20 μM Ca2+","neither nifedipine (Nif 20 μM_light blue line) nor diazepam (DZP 20 μM), or the combination of both (Nif+DZP 1.0 μM—pink line) succeeded in inhibiting"
same,inhibition of the hydrolytic activity of the mitochondrial enzyme (in words),[5],Neither Nifedipine: nor Diazepam inhibited
"N.N.N.N.N.N.N.N.N.N.N.N.N.N.[Cl-].[Cl-].[Cl-].[Cl-].[Cl-].[Cl-].[O-2].[O-2].[Ru+3].[Ru+3].[Ru+4] [Ruthenium-red, reference compound]",inhibition of calcium captation by the organelle,"[4]; 1 μM, isolated mitochondria 0.5 mg/ml, 20 μM Ca2+",calcium captation does not occur
